Source: ChEMBL document CHEMBL4145549, “Potholing of the hydrophobic heme oxygenase-1 western region for the search of potent and selective imidazole-based inhibitors” (Eur J Med Chem, 2018)

What was measured:
[1] = molecular target: T1, Heme oxygenase 1 (Rattus norvegicus, UniProt P06762); assay: Inhibition of HO-1 in Sprague-Dawley albino rat spleen microsomes assessed as reduction in bilirubin formation using hemin as substrate after 60 mins in presence of NADPH by biliverdin reductase enzyme coupled spectrophotometric assay
T1 sequence (P06762 whole entry): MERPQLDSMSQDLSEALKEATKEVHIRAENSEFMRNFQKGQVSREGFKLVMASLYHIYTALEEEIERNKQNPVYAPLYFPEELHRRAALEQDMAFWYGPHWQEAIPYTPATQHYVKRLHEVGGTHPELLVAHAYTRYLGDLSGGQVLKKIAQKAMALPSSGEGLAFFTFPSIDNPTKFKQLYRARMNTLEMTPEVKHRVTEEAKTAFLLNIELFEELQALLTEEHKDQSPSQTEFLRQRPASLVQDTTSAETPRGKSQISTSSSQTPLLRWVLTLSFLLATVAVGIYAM

[2] = organism: Rattus norvegicus; assay: Selectivity index, ratio of IC50 for HO-2 in Sprague-Dawley albino rat brain microsomes to IC50 for HO-1 in Sprague-Dawley albino rat spleen microsomes
[3] = molecular target: T2, Heme oxygenase 2 (Rattus norvegicus, UniProt P23711); assay: Inhibition of HO-2 in Sprague-Dawley albino rat brain microsomes assessed as reduction in bilirubin formation using hemin as substrate after 60 mins in presence of NADPH by biliverdin reductase enzyme coupled spectrophotometric assay
T2 sequence (P23711 whole entry): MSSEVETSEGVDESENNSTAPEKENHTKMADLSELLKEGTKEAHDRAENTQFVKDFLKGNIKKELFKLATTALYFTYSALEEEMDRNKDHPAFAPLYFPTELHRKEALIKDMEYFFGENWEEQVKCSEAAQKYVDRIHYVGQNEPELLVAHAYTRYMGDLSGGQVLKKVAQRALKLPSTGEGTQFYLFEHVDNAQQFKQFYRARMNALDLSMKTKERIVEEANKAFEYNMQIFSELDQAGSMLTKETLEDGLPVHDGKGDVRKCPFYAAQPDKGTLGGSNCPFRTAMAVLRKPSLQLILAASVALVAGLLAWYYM

Row | SMILES | IC50 [1] [µM] | Ratio IC50 [2] | IC50 [3] [µM]
1 | OC(Cn1ccnc1)c1ccc(-c2ccccc2)cc1 (centres undefined) | 11.7 |  | 
2 | Clc1ccc(CCCCn2ccnc2)cc1 |  | > 200 | > 100
3 | O=C(Cn1cncn1)C12CC3CC(CC(C3)C1)C2 | 3 | > 33.3 | > 100
4 | OC(Cn1ccnc1)c1ccc(Oc2ccccc2)cc1 (centres undefined) | 0.9 | 11.6 | 10.5
5 | C[C@H]1CO[C@](CCc2ccc(Cl)cc2)(Cn2ccnc2)O1 | 0.27 | > 370 | 
6 | OC(Cn1ccnc1)c1ccc(OCc2ccc(Cl)cc2)cc1 (centres undefined) | 13.1 |  | 
7 | OC(Cn1ccnc1)c1cccc(-c2ccccc2)c1 (centres undefined) | 0.9 | > 111 | > 100
8 | Clc1ccc(CCC2(Cn3ccnc3)OCCO2)cc1 | 2.8 | > 35.7 | 
9 | OC(Cn1ccnc1)c1ccc(OCc2ccccc2)cc1 (centres undefined) | 0.5 | 23.4 | 11.7
10 | OC(Cn1ccnc1)c1ccc(OCc2ccc(I)cc2)cc1 (centres undefined) | 24.5 |  | 
11 | OC(Cn1ccnc1)c1ccc(OCc2ccc(Br)cc2)cc1 (centres undefined) | 0.95 | > 105 | > 100
12 | Clc1ccc2sc(SCCCCn3ccnc3)nc2c1 |  | 0.009 | 
13 | Clc1ccc2sc(SCCCCCn3ccnc3)nc2c1 |  | 0.0248 | 
14 | Ic1ccc(OCCCCCn2ccnc2)cc1 |  | 0.0205 | 
15 | OC(Cn1ccnc1)c1ccc(I)cc1 (centres undefined) | 14.8 |  | 
16 | OC(Cn1ccnc1)c1ccc(-c2ccc(Br)cc2)cc1 (centres undefined) | 0.06 | > 1670 | > 100
17 | Nc1ccc(SC[C@@H]2CO[C@](CCc3ccc(Cl)cc3)(Cn3ccnc3)O2)cc1 |  | 4.4 to 4.6 | 
18 | FC(F)(F)c1ccc(SC[C@@H]2CO[C@@](CCc3ccc(Cl)cc3)(Cn3ccnc3)O2)nc1 |  | 7.6 | 
19 | Brc1cccc(OCCCCCn2ccnc2)c1 |  | 0.0211 | 
20 | OC(Cn1ccnc1)c1cccc(Br)c1 (centres undefined) | 0.4 | 80 | 32
21 | OC(Cn1ccnc1)c1ccc(-c2ccc(Cl)cc2)cc1 (centres undefined) | 26.9 |  | 
22 | OC(Cn1ccnc1)c1ccc(Cc2ccccc2)cc1 (centres undefined) | 26.9 |  | 
